According to patent US11884668B1, “Substituted pyrido[3′,4′:4,5]pyrrolo[2,3-c]quinolines as CK2 inhibitors” (KING FAISAL UNIVERSITY, priority 2023, dated 2024):
pIC50: −log10 of the molar value.

What was measured:
H1299 (lung) = experiment: In vitro cytotoxic activity assay (MTT), H1299; format: cell-based; details: Homo sapiens, NCI-H1299; H1299 (lung) cells, exposed for 96 hours; read-out: IC50, concentration of compound eliciting a 50% inhibition of cell proliferation
Method: (§1) Compounds 1-16 were screened for their in vitro cytotoxic activity utilizing a 3-(4,5-dimethyl-thiazol-2-yl)-2,5-diphenyltetrazolium bromide (MTT) assay against selected cancer human cell lines consisting of PC3 (prostate), HCT116 (colon), A375 (melanoma), H1299 (lung), MIAPaCa-2 (pancreas), HL60 (leukemia), MCF7 (breast), MDA-MB-231 (breast) (T. Mosmann, J. Immunol. Meth., 1983, 65, 55-63). The cells were cultured at 37° C. in RMPI1640 medium supplemented with 10% fetal bovine serum, 50 IU/mL penicillin, and 50 μg/mL streptomycin in a 5% CO2 incubator. All cells were sub-cultured 3 times/week by trypsinisation. Viable cells were seeded and allowed to adhere for 12 h before a test drug was added in 96-well plates at an initial density of 1.0×10^5 cells/mL. Tumour cell lines were separately exposed to various concentrations of the tested compounds followed by incubation at a temperature of 37° C. during 96 h inside a medium of fresh RMPI 1640. Cells were subsequently incubated at 37° C. using MTT at 0.5 mg/mL during 4 h. After removal of supernatant, formazan crystals were dissolved in isopropanol and the optical density was measured at 570 nm. CX-4945 was used as a positive control.

MCF7 (breast) = experiment: In vitro cytotoxic activity assay (MTT), MCF7; format: cell-based; details: Homo sapiens; MCF7 (breast) cells, exposed for 96 hours; read-out: IC50, concentration of compound eliciting a 50% inhibition of cell proliferation
Method: as §1

MDA-MB-231 (breast) = experiment: In vitro cytotoxic activity assay (MTT), MDA-MB-231; format: cell-based; details: Homo sapiens; MDA-MB-231 (breast) cells, exposed for 96 hours; read-out: IC50, concentration of compound eliciting a 50% inhibition of cell proliferation
Method: as §1

PC3 (prostate) = experiment: In vitro cytotoxic activity assay (MTT), PC3; format: cell-based; details: Homo sapiens, Prostate cell; PC3 (prostate) cells, exposed for 96 hours; read-out: IC50, concentration of compound eliciting a 50% inhibition of cell proliferation
Method: as §1

HCT116 (colon) = experiment: In vitro cytotoxic activity assay (MTT), HCT116; format: cell-based; details: Homo sapiens, HCT-116; HCT116 (colon) cells, exposed for 96 hours; read-out: IC50, concentration of compound eliciting a 50% inhibition of cell proliferation
Method: as §1

MIAPaCa-2 (pancreas) = experiment: In vitro cytotoxic activity assay (MTT), MIAPaCa-2; format: cell-based; details: Homo sapiens, MIA PaCa-2; MIAPaCa-2 (pancreas) cells, exposed for 96 hours; read-out: IC50, concentration of compound eliciting a 50% inhibition of cell proliferation
Method: as §1

A375 (melanoma) = experiment: In vitro cytotoxic activity assay (MTT), A375; format: cell-based; details: Homo sapiens, A-375; A375 (melanoma) cells, exposed for 96 hours; read-out: IC50, concentration of compound eliciting a 50% inhibition of cell proliferation
Method: as §1

HL60 (leukemia) = experiment: In vitro cytotoxic activity assay (MTT), HL60; format: cell-based; details: Homo sapiens, HL-60; HL60 (leukemia) cells, exposed for 96 hours; read-out: IC50, concentration of compound eliciting a 50% inhibition of cell proliferation
Method: as §1

recombinant human CK2 = biological target: T1, recombinant human CK2 (Homo sapiens, UniProt P68400); experiment: CK2 Kinase Assay (radiometric, [γ-33P]ATP); format: biochemical; details: final ATP concentration 15 μM, 10 min at 30° C.; read-out: protein kinase CK2 activity IC50
T1 construct: purchased Millipore
T1 sequence (P68400 whole entry): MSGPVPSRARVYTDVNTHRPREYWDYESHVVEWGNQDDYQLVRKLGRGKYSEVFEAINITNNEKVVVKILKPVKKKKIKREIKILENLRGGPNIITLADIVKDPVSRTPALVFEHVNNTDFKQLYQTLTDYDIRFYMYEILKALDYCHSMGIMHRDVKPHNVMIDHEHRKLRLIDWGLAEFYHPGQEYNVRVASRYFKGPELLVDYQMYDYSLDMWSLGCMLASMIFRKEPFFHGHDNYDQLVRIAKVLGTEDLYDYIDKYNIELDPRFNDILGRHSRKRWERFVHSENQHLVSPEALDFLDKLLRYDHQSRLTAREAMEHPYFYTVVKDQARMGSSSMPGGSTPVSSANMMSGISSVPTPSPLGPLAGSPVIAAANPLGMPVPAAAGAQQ
T1 sequence (P67870 whole entry partner): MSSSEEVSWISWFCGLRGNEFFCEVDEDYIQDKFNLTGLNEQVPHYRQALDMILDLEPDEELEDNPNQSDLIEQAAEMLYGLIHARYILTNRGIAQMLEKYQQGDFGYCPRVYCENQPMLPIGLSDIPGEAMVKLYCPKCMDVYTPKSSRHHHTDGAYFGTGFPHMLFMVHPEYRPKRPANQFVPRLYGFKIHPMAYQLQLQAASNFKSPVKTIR
Method: CK2 Kinase Assay was conducted using the protocol as described in Pierre F. et al; J. Med. Chem. 2011, 54, 635-654. The tested compounds in aqueous solution were added at a volume of 10 μL to a reaction mixture comprising 10 μL of assay dilution buffer (ADB; 20 mM MOPS, pH 7.2, 25 mM β-glycerol phosphate, 5 mM EGTA, 1 mM sodium orthovanadate, and 1 mM dithiothreitol), 10 μL of substrate peptide (RRRDDDSDDD, dissolved in ADB at a concentration of 1 mM), 10 μL of recombinant human CK2 (RROP-holoenzyme, 25 ng dissolved in ADB; Millipore). Reactions were initiated by the addition of 10 μL of ATP solution (90% 75 mMMgCl2, 75 μM ATP (final ATP concentration:15 μM) dissolved in ADB; 10% [γ-33P] ATP (stock 1mCi/100 L; 3000 Ci/mmol (Perkin-Elmer) and maintained for 10 min at 30° C. The reactions were quenched with 100 μL of 0.75% phosphoric acid and then transferred to and filtered through a phosphor cellulose filter plate (Millipore). After washing each well five times with 0.75% phosphoric acid, the plate was dried under vacuum for 5 min and, following the addition of 15 μL of scintillation fluid to each well, the residual radioactivity was measured using a Wallac luminescence counter. The IC50 values were derived from eight concentrations of test inhibitors.

pIC50 (recombinant human CK2): 6.76
SMILES: O=C(O)c1ccc2c(c1)nc(Nc1cccc(Cl)c1)c1[nH]c3ccncc3c12 [Compound 1, 6-((3-chlorophenyl)amino)-7H-pyrido[3′,4′:4,5]pyrrolo[2,3-c]quinoline-3-carboxylic acid]
pIC50 (H1299 (lung)): 5.72
pIC50 (MCF7 (breast)): 5.39
pIC50 (MDA-MB-231 (breast)): 5.60
pIC50 (PC3 (prostate)): 5.96
pIC50 (HCT116 (colon)): 5.82
pIC50 (MIAPaCa-2 (pancreas)): 5.96
pIC50 (A375 (melanoma)): 5.48
pIC50 (HL60 (leukemia)): 5.55
